Source: US20230416248A1, “COMPOUNDS AND USES THEREOF” (Foghorn Therapeutics Inc., priority 2020, published 2023)
Read-outs that look alike come from different tables or passages of the source.

Tests used:
BRM = molecular target: T1, BRM (Homo sapiens, UniProt P51531); experiment: ATPase catalytic activity of BRM, ADP-Glo in vitro biochemical assay; details: for IC50: 30 nM BRM, 400 μM ATP; for Ratio* (BRG1 IC50 (μM) divided by BRM IC50 (μM)): selectivity ratio BRG1 IC50 / BRM IC50
T1 construct: made in house; host or cells: High Five insect cells
In short: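 Recombinant BRM (30 nM) hydrolysed 400 μM ATP with 20 nM salmon sperm DNA in pH 8 Tris buffer containing 20 mM MgCl2, 50 mM NaCl, 0.1% Tween-20 and 1 mM DTT, 1 h at room temperature. ADP formed was quantified by ADP-Glo luminescence.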

BRG-1 = molecular target: T2, BRG-1 (Homo sapiens, UniProt P51532); experiment: ATPase catalytic activity of BRG-1, ADP-Glo in vitro biochemical assay; details: 30 nM BRG-1, 400 μM ATP, read-out: BRG1 IC50
T2 construct: made in house; host or cells: High Five insect cells
In short: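 BRG-1 ATPase activity was measured by ADP-Glo. Unconsumed ATP was depleted for 40 min at room temperature, then ADP was converted to ATP for 60 min and read as luminescence.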

[1] = ATPase catalytic activity, ADP-Glo

T2 sequence (P51532 whole entry): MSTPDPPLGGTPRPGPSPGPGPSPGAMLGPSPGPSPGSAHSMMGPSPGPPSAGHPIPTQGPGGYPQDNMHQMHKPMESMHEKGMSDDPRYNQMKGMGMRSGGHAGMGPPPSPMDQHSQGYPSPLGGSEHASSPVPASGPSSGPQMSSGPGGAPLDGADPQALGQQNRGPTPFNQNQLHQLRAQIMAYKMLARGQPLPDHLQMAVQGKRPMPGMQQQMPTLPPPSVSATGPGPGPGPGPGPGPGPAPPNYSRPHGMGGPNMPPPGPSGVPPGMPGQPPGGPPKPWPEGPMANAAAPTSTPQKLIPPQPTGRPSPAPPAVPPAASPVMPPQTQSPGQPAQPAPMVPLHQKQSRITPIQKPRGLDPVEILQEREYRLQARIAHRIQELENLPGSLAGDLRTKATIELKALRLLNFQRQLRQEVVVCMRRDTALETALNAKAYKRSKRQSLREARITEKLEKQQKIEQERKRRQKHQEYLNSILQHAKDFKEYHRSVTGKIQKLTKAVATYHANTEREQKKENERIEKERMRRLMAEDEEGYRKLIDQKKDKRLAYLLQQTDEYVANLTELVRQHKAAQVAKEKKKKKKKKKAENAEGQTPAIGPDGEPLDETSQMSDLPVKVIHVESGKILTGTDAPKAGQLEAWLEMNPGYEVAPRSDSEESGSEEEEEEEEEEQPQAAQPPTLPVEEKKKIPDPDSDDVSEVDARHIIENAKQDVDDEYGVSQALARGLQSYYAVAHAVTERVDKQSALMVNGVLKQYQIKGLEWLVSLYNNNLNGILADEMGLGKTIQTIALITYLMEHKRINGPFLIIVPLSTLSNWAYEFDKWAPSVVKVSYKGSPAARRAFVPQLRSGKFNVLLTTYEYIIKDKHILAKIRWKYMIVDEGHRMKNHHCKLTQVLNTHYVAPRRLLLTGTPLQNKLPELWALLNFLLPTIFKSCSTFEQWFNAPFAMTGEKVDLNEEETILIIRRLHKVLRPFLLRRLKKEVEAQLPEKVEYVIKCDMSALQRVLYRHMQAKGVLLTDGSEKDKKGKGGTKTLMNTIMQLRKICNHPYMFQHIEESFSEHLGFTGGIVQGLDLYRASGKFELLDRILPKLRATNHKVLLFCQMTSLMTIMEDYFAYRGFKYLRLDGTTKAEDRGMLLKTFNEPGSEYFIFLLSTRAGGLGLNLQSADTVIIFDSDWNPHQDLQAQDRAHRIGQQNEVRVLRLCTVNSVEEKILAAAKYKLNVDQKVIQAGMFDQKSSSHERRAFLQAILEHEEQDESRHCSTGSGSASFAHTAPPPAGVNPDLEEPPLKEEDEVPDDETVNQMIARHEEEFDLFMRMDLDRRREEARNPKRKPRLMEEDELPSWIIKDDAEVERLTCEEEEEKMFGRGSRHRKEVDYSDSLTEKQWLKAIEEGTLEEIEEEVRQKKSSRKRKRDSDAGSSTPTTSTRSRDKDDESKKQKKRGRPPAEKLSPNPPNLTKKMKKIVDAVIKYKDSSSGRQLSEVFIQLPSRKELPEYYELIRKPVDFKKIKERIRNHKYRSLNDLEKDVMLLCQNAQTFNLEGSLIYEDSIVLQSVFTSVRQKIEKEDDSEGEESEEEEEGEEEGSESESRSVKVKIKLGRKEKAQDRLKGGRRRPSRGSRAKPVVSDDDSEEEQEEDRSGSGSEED
T1 sequence (P51531 whole entry): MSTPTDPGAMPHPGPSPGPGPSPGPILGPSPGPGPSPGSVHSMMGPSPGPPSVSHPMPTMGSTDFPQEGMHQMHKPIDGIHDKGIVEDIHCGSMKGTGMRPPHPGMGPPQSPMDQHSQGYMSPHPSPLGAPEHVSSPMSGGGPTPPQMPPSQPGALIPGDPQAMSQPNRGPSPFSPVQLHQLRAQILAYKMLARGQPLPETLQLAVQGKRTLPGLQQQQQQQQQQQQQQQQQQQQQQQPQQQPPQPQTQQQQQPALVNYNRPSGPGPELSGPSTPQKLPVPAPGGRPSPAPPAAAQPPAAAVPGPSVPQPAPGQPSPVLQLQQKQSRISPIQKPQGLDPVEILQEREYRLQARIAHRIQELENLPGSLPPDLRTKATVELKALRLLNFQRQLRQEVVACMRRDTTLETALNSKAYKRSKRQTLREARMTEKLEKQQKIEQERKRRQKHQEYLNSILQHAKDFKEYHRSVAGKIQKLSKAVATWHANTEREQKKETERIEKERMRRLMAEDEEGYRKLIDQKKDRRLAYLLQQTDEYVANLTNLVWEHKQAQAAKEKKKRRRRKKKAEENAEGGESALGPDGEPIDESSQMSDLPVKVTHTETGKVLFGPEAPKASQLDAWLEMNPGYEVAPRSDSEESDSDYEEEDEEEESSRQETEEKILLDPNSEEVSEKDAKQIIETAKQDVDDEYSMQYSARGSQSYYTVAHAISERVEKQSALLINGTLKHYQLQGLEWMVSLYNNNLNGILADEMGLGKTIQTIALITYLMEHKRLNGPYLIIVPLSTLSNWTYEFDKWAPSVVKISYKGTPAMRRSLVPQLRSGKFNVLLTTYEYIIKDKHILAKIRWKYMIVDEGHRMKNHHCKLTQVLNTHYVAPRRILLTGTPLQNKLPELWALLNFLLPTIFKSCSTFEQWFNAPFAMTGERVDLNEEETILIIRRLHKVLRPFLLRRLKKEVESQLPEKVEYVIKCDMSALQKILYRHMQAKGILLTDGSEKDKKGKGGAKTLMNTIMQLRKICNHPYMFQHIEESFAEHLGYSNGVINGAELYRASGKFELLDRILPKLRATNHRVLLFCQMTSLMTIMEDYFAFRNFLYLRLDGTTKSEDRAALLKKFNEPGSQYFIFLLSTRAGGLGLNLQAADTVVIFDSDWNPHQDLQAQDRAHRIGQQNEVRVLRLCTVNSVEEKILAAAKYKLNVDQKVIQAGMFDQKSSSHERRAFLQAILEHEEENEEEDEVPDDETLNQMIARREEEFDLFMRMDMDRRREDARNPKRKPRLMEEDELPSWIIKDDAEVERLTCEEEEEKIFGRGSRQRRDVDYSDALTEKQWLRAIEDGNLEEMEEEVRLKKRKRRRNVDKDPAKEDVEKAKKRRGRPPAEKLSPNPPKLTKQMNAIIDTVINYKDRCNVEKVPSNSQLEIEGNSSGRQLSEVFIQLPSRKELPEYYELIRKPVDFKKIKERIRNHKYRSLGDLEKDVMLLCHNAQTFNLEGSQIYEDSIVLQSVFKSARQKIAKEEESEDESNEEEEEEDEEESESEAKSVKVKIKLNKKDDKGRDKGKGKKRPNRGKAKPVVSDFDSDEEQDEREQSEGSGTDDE

SMILES | IC50 (BRM; [1]) [nM] | Ratio* (BRM; ratio of BRG1 IC50 to BRM IC50) | IC50 (BRG-1; [1]) [nM] | IC50 (BRM; ADP-Glo ATPase assay) [nM] | Ratio* (BRG1 IC50 (μM) divided by BRM IC50 (μM)) (BRM) | IC50 (BRG-1; ADP-Glo ATPase assay) [nM] | Ratio* (BRM; ratio BRG1 IC50 / BRM IC50)
O=C(NCc1cc2nc(-c3cccc(C45COCC4C5)n3)ccc2cn1)c1ccc2c(c1)S(=O)(=O)CCOC2 (centres unmarked) [Compound 472] | 25 | 14.93 | 373 | – | – | – | –
CS(=O)(=O)c1cc(C(=O)NCc2cc3nc(-c4cccc(N5CC[C@@H]6COC[C@@H]6C5)n4)ccc3cn2)ccc1Cl [Compound 77] | – | – | – | 77.5 | 13.85 | 1070 | –
O=C(NCc1cc2nc(N3CCCc4ccc(OC5CC5)cc43)ccc2cn1)c1ccc2c(c1)S(=O)(=O)CCOC2 [Compound 644] | 6.4 | 26.34 | 170 | – | – | – | –
C[C@@H]1CN(c2cccc(-c3ccc4cnc(CNC(=O)c5cc(Cl)c6c(c5)S(=O)(=O)[C@@H](C)CCO6)cc4n3)n2)C[C@H](C)O1 [Compound 484] | 13.7 | 21.16 | 289 | – | – | – | –
CO[C@H](C)COc1ccc2c(c1)N(c1ccc3cnc(CNC(=O)c4ccc5c(c4)S(=O)(=O)CCOC5)cc3n1)CCC2 [Compound 705] | – | – | – | 4.3 | – | 58.1 | 13.63
Cc1cc(C(=O)NCc2cc3nc(-c4cccc(N5C[C@@H](C)O[C@@H](C)C5)n4)ccc3cn2)cc2c1O[C@@H](C)CCS2(=O)=O [Compound 544] | 41.8 | 24.42 | 1020 | – | – | – | –
Cc1ccc2c(n1)N(c1ccc3cnc(CNC(=O)c4ccc5c(c4)S(=O)(=O)CCOC5)cc3n1)CCN2C [Compound 593] | 243 | 9.02 | 2190 | – | – | – | –
C[C@@H]1CN(c2cccc(-c3ccc4cnc(CNC(=O)c5cnc6c(c5)S(=O)(=O)CCCCC6)cc4n3)n2)C[C@H](C)O1 [Compound 451] | 5 | 1.60 | 8 | – | – | – | –
C[C@@H]1CN(c2cccc(-c3ccc4cnc(CNC(=O)c5ccc6c(c5)S(=O)(=O)CCCO6)cc4n3)n2)C[C@H](C)O1 [Compound 53] | – | – | – | 11.7 | – | 116 | –
COc1cc(C(C)(F)F)ccc1-c1ccc2cnc(CNC(=O)c3ccc4c(c3)S(=O)(=O)CCOC4)cc2n1 [Compound 419] | 24.5 | 15.63 | 384 | – | – | – | –
Cc1ccc2c(n1)N(c1ccc3cnc(CNC(=O)c4ccc5c(c4)S(=O)(=O)CCCO5)cc3n1)CCC2 [Compound 538] | 114 | 14.67 | 1670 | – | – | – | –
COCc1ccc2c(c1)N(c1ccc3cnc(CNC(=O)c4ccc5c(c4)S(=O)(=O)CCOC5)cc3n1)CCC2 [Compound 605] | 11.7 | 16.04 | 187 | – | – | – | –
O=C(NCc1cc2nc(N3CCCc4ccc(OCC5CCOC5)cc43)ccc2cn1)c1ccc2c(c1)S(=O)(=O)CCOC2 (centres unmarked) [Compound 759] | – | – | – | 5.3 | – | 53.3 | 9.97
C[C@@H]1CN(c2nc(-c3ccc4cnc(CNC(=O)c5ccc6c(c5)S(=O)(=O)CCOC6)cc4n3)ccc2F)C[C@H](C)O1 [Compound 111] | – | – | – | 6 | 4.58 | 27.4 | –
COc1nc(-c2ccc3cnc(CNC(=O)c4cc(F)c5c(c4)S(=O)(=O)[C@@H](C)COC5)cc3n2)ccc1C(F)F [Compound 530] | 19.5 | 11.19 | 218 | – | – | – | –
COC[C@H]1CCCN(c2cccc(-c3ccc4cnc(CNC(=O)c5ccc6c(c5)S(=O)(=O)CCOC6)cc4n3)n2)C1 [Compound 622] | 27.4 | 3.98 | 109 | – | – | – | –
O=C(NCc1cc2nc(N3CCOc4ccc(C(F)CF)nc43)ccc2cn1)c1ccc2c(c1)S(=O)(=O)CCOC2 (centres unmarked) [Compound 838] | – | – | – | 27.5 | – | 1060 | 38.76
O=C(NCc1cc2nc(N3CCOc4ccc(C5(F)CC5(F)F)nc43)ccc2cn1)c1ccc2c(c1)S(=O)(=O)CCOC2 (centres unmarked) [Compound 795] | – | – | – | 122 | – | 4110 | 33.67

SMILES | IC50 (BRM; [1]) [nM] | Ratio* (BRM; ratio of BRG1 IC50 to BRM IC50) | IC50 (BRG-1; [1]) [nM] | IC50 (BRM; ADP-Glo ATPase assay) [nM] | Ratio* (BRG1 IC50 (μM) divided by BRM IC50 (μM)) (BRM) | IC50 (BRG-1; ADP-Glo ATPase assay) [nM] | Ratio* (BRM; ratio BRG1 IC50 / BRM IC50)
C[C@@H]1CN(c2cccc(-c3ccc4cnc(CNC(=O)c5ccc6c(c5)S(=O)(=O)[C@@H](C)CN6C5CC5)cc4n3)n2)C[C@H](C)O1 [Compound 667] | 39 | 13.24 | 517 | – | – | – | –
O=C(NCc1cc2nc(-c3cccc(N4CC[C@H]5C[C@H]5C4)n3)ccc2cn1)c1ccc2c(c1)S(=O)(=O)CCOC2 [Compound 322] | 11 | 10.96 | 120 | – | – | – | –
CCO[C@@H]1CCOc2c(-c3ccc4cnc(CNC(=O)c5ccc6c(c5)S(=O)(=O)CCOC6)cc4n3)cccc21 [Compound 65] | – | – | – | 16.2 | 6.14 | 99.7 | –
O=C(NCc1cc2nc(N3CCc4cnccc4C3)ccc2cn1)c1ccc2c(c1)S(=O)(=O)CCOC2 [Compound 87] | – | – | – | 689 | 7.14 | 4920 | –
O=C(NCc1cc2nc(N3CCOc4cc(C5CC5)ccc43)cnc2cn1)c1ccc2c(c1)S(=O)(=O)CCOC2 [Compound 844] | – | – | – | 19 | – | 380 | 19.99
CC(C)Oc1cccc(-c2ccc3cnc(CNC(=O)c4ccc5c(c4)S(=O)(=O)CCOC5)cc3n2)n1 [Compound 165] | – | – | – | 116 | 18.39 | 2120 | –
COCCN1CCOc2c(-c3ccc4cnc(CNC(=O)c5ccc(C(F)F)c(S(C)(=O)=O)c5)cc4n3)cccc21 [Compound 89] | – | – | – | 30.8 | 21.02 | 648 | –
C[C@@H]1CN(c2cccc(-c3ccc4cnc(CNC(=O)c5cc(Cl)c6c(c5)S(=O)(=O)CCO[C@@H]6C)cc4n3)n2)C[C@H](C)O1 [Compound 553] | 20.4 | 22.48 | 458 | – | – | – | –
O=C(NCc1cc2nc(-c3cccc4c3OCC[C@H]4OC3COC3)ccc2cn1)c1ccc2c(c1)S(=O)(=O)CCOC2 [Compound 409] | 16.6 | 8.58 | 143 | – | – | – | –
CCN(c1cccc(-c2ccc3cnc(CNC(=O)c4ccc5c(c4)S(=O)(=O)CCOC5)cc3n2)n1)C1CC1 [Compound 337] | 21.9 | 9.67 | 211 | – | – | – | –
C[C@@H]1CN(c2cccc(-c3ccc4cnc(CNC(=O)c5ccc(COC6CC6)c(S(C)(=O)=O)c5)cc4n3)n2)C[C@H](C)O1 [Compound 578] | 27.7 | 19.00 | 525 | – | – | – | –
COc1cc(Cl)ccc1-c1ccc2cnc(CNC(=O)c3ccc4c(c3)S(=O)(=O)CCOC4)cc2n1 [Compound 102] | – | – | – | 18.7 | 7.68 | 143 | –
O=C(NCc1cc2nc(N3CCCc4ccc(COC5CC5)nc43)ccc2cn1)c1ccc2c(c1)S(=O)(=O)CCOC2 [Compound 598] | 29.3 | 33.79 | 991 | – | – | – | –
C[C@@H]1CN(c2cccc(-c3ccc4cnc(CNC(=O)c5cc(C6CC6)c6c(c5)S(=O)(=O)CCOC6)cc4n3)n2)C[C@H](C)O1 [Compound 75] | – | – | – | 34.6 | 19.65 | 681 | –
O=C(NCc1cc2nc(N3CCOc4ccc([C@@H]5CC5(F)F)nc43)ccc2cn1)c1ccc2c(c1)S(=O)(=O)CCOC2 [Compound 702] | 10.2 | 93.83 | 960 | – | – | – | –
COC[C@@H]1CCc2ccc(-c3ccc4cnc(CNC(=O)c5ccc6c(c5)S(=O)(=O)CCOC6)cc4n3)nc2N1C [Compound 476] | 3.7 | 9.82 | 36.6 | – | – | – | –
C[C@@H]1CN(c2cccc(-c3cnc4cnc(CNC(=O)c5ccc6c(c5)S(=O)(=O)[C@@H](C)COC6)cc4n3)n2)C[C@H](C)O1 [Compound 710] | – | – | – | 29.8 | – | 153 | 5.13
C[C@H]1COCc2ccc(C(=O)NCc3cc4nc(-c5ccnc([C@@H]6CC6(F)F)n5)ccc4cn3)cc2S1(=O)=O [Compound 465] | 102 | 15.25 | 1560 | – | – | – | –
